Measurements: the NIST ThermoML archive (doi:10.1021/je900600c)

Assay: xn = mol fraction of the nth substance listed
Details: 101 kPa, Liquid; for electrical conductivity: Frequency=0.0005 MHz, crison conductivimeter

CCCCn1cc[n+](C)c1.F[B-](F)(F)F [1-butyl-3-methylimidazolium tetrafluoroborate] + O
Details | electrical conductivity [S/m] | viscosity [mPa·s]
288.15 K, x2 = 0 | – | 173.5
288.15 K, x2 = 0.0476 | – | 134.1
288.15 K, x2 = 0.1091 | – | 108.4
288.15 K, x2 = 0.143 | – | 89.3
288.15 K, x2 = 0.2389 | – | 58.2
288.15 K, x2 = 0.3078 | – | 45.6
288.15 K, x2 = 0.4 | – | 32.5
288.15 K, x2 = 0.4954 | 1.4 | –
288.15 K, x2 = 0.5054 | – | 21.1
288.15 K, x2 = 0.6266 | – | 13.77
288.15 K, x2 = 0.6992 | – | 9.78
288.15 K, x2 = 0.7981 | – | 6.69
288.15 K, x2 = 0.9032 | – | 3.83
298.15 K, x2 = 0 | 0.352 | 99.2
298.15 K, x2 = 0.0476 | – | 78.7
298.15 K, x2 = 0.1091 | – | 65.6
298.15 K, x2 = 0.143 | – | 55.1
298.15 K, x2 = 0.2235 | 0.785 | –
298.15 K, x2 = 0.2389 | – | 37.7
298.15 K, x2 = 0.3078 | – | 30.2
298.15 K, x2 = 0.3705 | 1.3 | –
298.15 K, x2 = 0.4 | – | 22.1
298.15 K, x2 = 0.4835 | 1.86 | –
298.15 K, x2 = 0.4954 | 2.02 | –
298.15 K, x2 = 0.5054 | – | 14.72
298.15 K, x2 = 0.6173 | 2.75 | –
298.15 K, x2 = 0.6266 | – | 9.82
298.15 K, x2 = 0.6992 | – | 7.07
298.15 K, x2 = 0.7167 | 3.64 | –
298.15 K, x2 = 0.777 | 4.2 | –
298.15 K, x2 = 0.7981 | – | 4.89
298.15 K, x2 = 0.8168 | 4.55 | –
298.15 K, x2 = 0.8458 | 4.84 | –
298.15 K, x2 = 0.8684 | 5 | –
298.15 K, x2 = 0.8879 | 5.08 | –
298.15 K, x2 = 0.9031 | 5.09 | –
298.15 K, x2 = 0.9032 | – | 2.79
298.15 K, x2 = 0.9151 | 5.08 | –
298.15 K, x2 = 0.9245 | 5.05 | –
298.15 K, x2 = 0.9322 | 4.98 | –
298.15 K, x2 = 0.9396 | 4.84 | –
298.15 K, x2 = 0.9457 | 4.81 | –
298.15 K, x2 = 0.952 | 4.73 | –
298.15 K, x2 = 0.9572 | 4.65 | –
298.15 K, x2 = 0.9615 | 4.54 | –
298.15 K, x2 = 0.9654 | 4.41 | –
298.15 K, x2 = 0.9713 | 4.15 | –
298.15 K, x2 = 0.9801 | 3.64 | –
298.15 K, x2 = 0.9861 | 3.14 | –
298.15 K, x2 = 0.9896 | 2.68 | –
298.15 K, x2 = 0.993 | 2.11 | –
298.15 K, x2 = 0.9951 | 1.64 | –
298.15 K, x2 = 0.9961 | 1.43 | –
298.15 K, x2 = 0.9974 | 1.05 | –
298.15 K, x2 = 0.9982 | 0.788 | –
298.15 K, x2 = 0.999 | 0.475 | –
298.15 K, x2 = 0.9996 | 0.2 | –
308.15 K, x2 = 0 | – | 61.3
308.15 K, x2 = 0.0476 | – | 49.8
308.15 K, x2 = 0.1091 | – | 42.4
308.15 K, x2 = 0.143 | – | 36.3
308.15 K, x2 = 0.2389 | – | 25.9
308.15 K, x2 = 0.3078 | – | 21.1
308.15 K, x2 = 0.4 | – | 15.81
308.15 K, x2 = 0.4954 | 2.61 | –
308.15 K, x2 = 0.5054 | – | 10.8
308.15 K, x2 = 0.6266 | – | 7.33
308.15 K, x2 = 0.6992 | – | 5.34
308.15 K, x2 = 0.7981 | – | 3.75
308.15 K, x2 = 0.9032 | – | 2.47
318.15 K, x2 = 0 | – | 40.4
318.15 K, x2 = 0.0476 | – | 33.5
318.15 K, x2 = 0.1091 | – | 29.1
318.15 K, x2 = 0.143 | – | 25.3
318.15 K, x2 = 0.2389 | – | 18.62
318.15 K, x2 = 0.3078 | – | 15.47
318.15 K, x2 = 0.4 | – | 11.81
318.15 K, x2 = 0.4954 | 3.25 | –
318.15 K, x2 = 0.5054 | – | 8.24
318.15 K, x2 = 0.6266 | – | 5.68
318.15 K, x2 = 0.6992 | – | 4.18
318.15 K, x2 = 0.7981 | – | 2.96
318.15 K, x2 = 0.9032 | – | 1.717
